{"source": "patent US9169519B2", "about": "“SUMO as a marker of cancer development and target for cancer therapy” (Duke University, priority 2010, dated 2015)", "tested_on": "F98 rat glioblastoma cells", "test": "3H-thymidine incorporation into DNA (DNA synthesis), with or without radiation", "assay_type": "cell-based", "conditions": "100 nM 4-HT versus vehicle, no radiation (FIG. 6B)", "description": "To investigate whether DNA synthesis of glioblastoma cells is modified by SUMO conjugation, the effects of suppressing SUMO conjugation on the incorporation of ^3H-thymidine into DNA was evaluated. SUMO conjugation was suppressed by blocking its expression using a miRNA approach. To avoid the risk of adaptive processes taking place in cells where SUMO expression had been silenced during the long selection process for stably transfected cells, a 4-hydroxy tamoxifen (4-HT)-inducible lentiviral system was used to express designed miRNAs (Callus et al., Cell Death Diff. 15: 213-219 (2008)). Briefly, the 4-HT inducible lentiviral system utilizes two constructs and the UAS/GAL4 system. […]\nThe effect of SUMO1/2/3 miRNA expression on radiation induced impairment of DNA synthesis was investigated by measuring the uptake of ^3H-thymidine. […] Irradiated cells were detached with trypsin-EDTA (Fisher Scientific), counted, re-suspended in culture medium with supplements described above, and re-plated in a 96-well plate at a density of 10,000 cells per well. […] Cells were harvested 24 hr later following detachment with trypsin-EDTA, collected on filter paper, dried overnight, and immersed in scintillation cocktail (ICN Biochemicals), and counted for 10 min in a liquid scintillation counter. […]", "data": [{"substance": "4-hydroxy tamoxifen [4-HT]", "values": [{"measurement": "3H-thymidine incorporation into DNA", "result": "did not produce any major change"}]}]}
